Test results published in publication PMC11243625, “Synthesis, Docking, and Machine Learning Studies of Some Novel Quinolinesulfonamides–Triazole Hybrids with Anticancer Activity” (Molecules, 2024).
Values after ≈ are worked out from the molar mass of the structure shown.

What was measured:
Caco-2 = test: WST-1 test, colon cancer cells; assay type: cell-based, human; conditions: Homo sapiens, Caco-2, 72 h
Procedure: Hybrids 4–14 were tested as anticancer agents against four human cancer cell lines: colon cancer (Caco-2), glioblastoma (SNB-19), lung cancer (A549), ovarian cancer (SKOV-3), and normal human dermal fibroblasts (NHDFs).
(§1) Cell cultures were performed in 96-well plates (Nunc Thermo Fisher Scientific, Waltham, MA, USA). Cells were seeded at 5 × 10^4/well and incubated for 24 h (at 37 °C, 5% CO2, and constant humidity). The medium was replaced with fresh with the addition of test compounds at a concentration of 0.1–100 µg/mL of DMSO and incubated again for another 72 h. After this time, the WST-1 test (Roche Molecular Biochemicals, Mannheim, Germany) was performed to assess the metabolic activity of the cells. Absorbance was measured at λ = 450 nm using a UVM340 microplate reader (Biogenet, Józefów, Poland). Results are expressed as the mean value of at least three independent experiments performed in triplicate.

SNB-19 = test: WST-1 test, glioblastoma cells; assay type: cell-based, human
Procedure: (§2) Hybrids 4–14 were tested as anticancer agents against four human cancer cell lines: colon cancer (Caco-2), glioblastoma (SNB-19), lung cancer (A549), ovarian cancer (SKOV-3), and normal human dermal fibroblasts (NHDFs). Cisplatin was used as the reference substance. The results are presented as the compound concentration of the compound (μM) that inhibits the growth of 50% of cancer cells compared to control cells (IC50). A negative value (Neg) means that the compound concentration of the tested hybrids was greater than 500 µM. […] It is generated only by a weak van der Waals interaction with Arg84. […] There is also a visible difference in activity depending on the type of group present on the triazole ring (substituent C in Figure 2). The results obtained indicate that hybrids containing aromatic systems as a C substituent in their structure, especially another quinoline molecule (compounds 9 and 10), have high activity.
as §1

SKOV-3 = test: WST-1 test, ovarian cancer cells; assay type: cell-based, human; conditions: Homo sapiens, SK-OV-3, 72 h
Procedure: as §2, §1

NHDF = test: WST-1 test, normal human dermal fibroblasts; assay type: cell-based; conditions: Homo sapiens, NHDF; 72 h, WST-1, normal cells
Procedure: as §2, §1

A549 = system: A549; design: method as in doi:10.1016/j.arabjc.2016.10.009; conditions: values marked *; read-out: IC50 A-549; cited from earlier work
ROCK1 = conditions: read-out: IC50 for ROCK1; cited from earlier work
HCC = conditions: Figure 1; cited from earlier work

| IC50 (Caco-2) [µM] | IC50 (SNB-19; Homo sapiens, SNB-19, 72 h) [µM] | IC50 (SKOV-3) [µM] | IC50 (SNB-19; 72 h) [µM] | SMILES | IC50 (NHDF) [µM] | IC50 (A549) [µM] | IC50 (ROCK1) [µM] | IC50 HCC (HCC) [µg/mL] |
| --- | --- | --- | --- | --- | --- | --- | --- | --- |
| 0.38 | 0.44 | 53.9 |  | CCCCn1cc(CNS(=O)(=O)c2cccc3cccnc23)nn1 [Compound 12a, 8-N-{[1-(1-butyl)-1H-1,2,3-triazol-4-yl]methyl}quinolinesulfonamide] | > 500 | > 500 |  |  |
| 0.32 | ≤ 0.4 | 64.6 | 0.39 | CCOC(=O)CCn1cc(CNS(=O)(=O)c2cccc3cccnc23)nn1 [Compound 13a, Ethyl 3-{[4-(8-sulfamoylquinolyl)methyl]-1H-1,2,3-triazol-1-yl}propanoate] | 223 | > 500 |  |  |
|  |  |  |  | O=S(=O)(c1cccc2cnccc12)N1CCCNCC1 [Fasudil] |  |  | […] | 0.04 (≈ 0.137 µM) |

| SMILES | IC50 (Caco-2) [µM] | IC50 (SNB-19; Homo sapiens, SNB-19, 72 h) [µM] | IC50 (SKOV-3) [µM] | IC50 (SNB-19; 72 h) [µM] | IC50 (NHDF) [µM] | IC50 (A549) [µM] | IC50 (ROCK1) [µM] | IC50 HCC (HCC) [µg/mL] |
| --- | --- | --- | --- | --- | --- | --- | --- | --- |
| C=C(Cn1cc(CN(C)S(=O)(=O)c2cccc3cccnc23)nn1)[C@@H]1CC[C@]2(COC(C)=O)CC[C@]3(C)[C@H](CC[C@@H]4[C@@]5(C)CC[C@H](OC(C)=O)C(C)(C)[C@@H]5CC[C@]43C)[C@@H]12 [Compound 14b, 8-N-methyl-N-({1-[3β, 28-diacetoxylup-20(29)-en-30-yl]-1H-1,2,3-triazol-4-yl}methyl)-quinolinesulfonamide] | 18.2 | 9.26 | 1.09 |  | > 500 | > 500 |  |  |
